For the test, the system named is LRF (luteinizing hormone release factor) induced luteinizing hormone (LH) release. Nature of the test: In vitro test for LRF antagonist activity in rat anterior pituitary cell cultures. The class given is cell-based. An excerpt: Pentapeptides of this invention were screened for LRF antagonist activity in vitro using rat anterior pituitary cell cultures as described by Vale et. al. [Endocrinology, 91, 562 (1972)]. The inhibition of LRF (luteinizing hormone release factor) induced luteinizing hormone (LH) release into the culture medium is the endpoint in this in vitro bioassay.

Setting [1] is: compound Molar Conc. 1 × 10^-7, LRF 3.5 × 10^-10, rat anterior pituitary cell cultures.
[2] abbreviates: compound Molar Conc. 3 × 10^-7, LRF 3.5 × 10^-10, rat anterior pituitary cell cultures.
Where [3] appears, read: compound Molar Conc. 5 × 10^-8, LRF 3.5 × 10^-10, rat anterior pituitary cell cultures.
The mark [4] stands for this setting: compound Molar Conc. 6 × 10^-7, LRF 3.5 × 10^-10, rat anterior pituitary cell cultures.
Where [5] appears, read: compound Molar Conc. 1 × 10^-6, LRF 2.5 × 10^-10, rat anterior pituitary cell cultures.

Where no end group is shown, it is not given here.

Turning to “LRF: luteinizing hormone releasing factor, formed in the hypothalamus; stimulates secretion of luteinizing hormone; used as the stimulus in the bioassay (QHWSYGLRPG; ends and bridges not checked; UniProt P01148 24-33, looked up) [reference compound]”, the “LH Value” (LRF alone, Molar Conc. 2.5 × 10^-10 (control of second experiment; saline control 7.70)) amounted to 36.96 ng/mL and the “LH Value” (LRF alone, Molar Conc. 3.5 × 10^-10 (control of first experiment; saline control 6.46)) was 40.46 ng/mL.

On to “N^α -t-Butoxycarbonyl-N^im -benzyl-L-histidyl-O-methyl-L-tyrosyl-O-benzyl-L-seryl-L-tryptophyl-D-alanine N-ethylamide”, for which the “% LH Release Inhibition” value was 69% under setting [1], 90% under setting [2], 56% under setting [3] and 98% under setting [4]. The “LH Value” by setting is: under setting [1], 17.2 ng/mL; under setting [2], 10.16 ng/mL; under setting [3], 21.61 ng/mL; under setting [4], 7.72 ng/mL.

In the case of “N^α -t-Butoxycarbonyl-N^im -benzyl-L-histidyl-O-methyl-L-tyrosyl-O-benzyl-L-seryl-L-tryptophyl-D-alanine methyl ester”, under setting [5], the “% LH Release Inhibition” value amounted to 69% and the “LH Value” was determined as 16.89 ng/mL.

Source of the values: patent publication US4062835A, “Pentapeptides and methods for their production” (Parke, Davis & Company, priority 1976, dated 1977).
